The values that follow come from PMC4545774, “Identification of inhibitors that target dual-specificity phosphatase 5 provide new insights into the binding requirements for the two phosphate pockets” (BMC Biochemistry, 2015).

Several values for one entry are separate records, joined by “and”; a condition that tells them apart may be missing. Equal values may be shown once. Entries after “also recorded” stand apart in the source; their conditions may differ. Read-outs that look alike come from different tables or passages of the source.

In series [1] the target is T1, DUSP5 PD(WT) (Homo sapiens, UniProt Q16690).
T1 construct: hexa-histidine (N); made in house; host or cells: E. coli BL21(DE3)
T1 sequence (Q16690 178-319 limits assumed): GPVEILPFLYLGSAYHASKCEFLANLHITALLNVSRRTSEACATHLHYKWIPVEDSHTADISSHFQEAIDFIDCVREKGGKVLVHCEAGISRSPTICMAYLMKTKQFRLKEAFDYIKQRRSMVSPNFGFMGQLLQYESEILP
Nature of the series: p-nitrophenol phosphate (pNPP) phosphatase activity / IC50 assay. The note with it: 1 mL cuvettes, pNPP substrate. Format: biochemical.

Series [2] has as its target T1, DUSP5 PD(WT). Described as above. Format: biochemical. The note with it: for effect of detergent on inhibition: presence vs absence of 0.5 % Triton X-100. The source says: To measure enzymatic activity of the DUSP5 PD and the inhibitory capacity of selected molecules, an in vitro phosphatase assay was developed based on previous studies. In this assay, DUSP5 PD will dephosphorylate the substrate p-nitrophenol phosphate (pNPP, Sigma Aldrich), yielding p-nitrophenolate, which absorbs at 405 nm with an extinction coefficient of 18,000 M^−1 cm^−1.
Thus, an increase in absorbance at 405 nm corresponds to the turnover of pNPP to p-nitrophenolate. The assay was initially optimized in 1 mL quartz cuvettes, then was subsequently optimized for and validated in a 96-well plate format. All IC50 values were obtained using the 96-well plate assay format (see below). The assay buffer contained 100 mM Tris, 100 mM sodium chloride, 5 mM magnesium chloride, and 1 mM DTT at pH 7.5. The pNPP substrate was prepared as a 50 mM stock by dissolving the solid substrate in assay buffer. The DUSP5 PD and pNPP were assayed initially in a cuvette (1 mL total volume) and initial velocities were fitted to the Michaelis-Menten equation:1 v=VmaxS/Km+S where v is the initial velocity, Vmax is the maximum velocity, Km is the Michaelis constant, and [S] is the concentration of pNPP. Data were fitted using a nonlinear least squares fit to eq. 1, with GraphPad Prism 6 software.
For the 96-well plate validation assay, sodium orthovanadate (Sigma Aldrich) was utilized as a positive control for inhibition at a final concentration of 10 μM, to completely block DUSP5(WT) enzymatic activity. All plate assays were performed in standard 96-well clear bottom plates (Thermo Scientific Nunc) with a total assay volume of 200 μL, using a SpectraMax M5 Microplate Reader (Molecular Devices). The plate validation assay was performed with replicate columns of positive control wells, negative control wells and blank wells. Blank columns contained only buffer and pNPP. Negative control (uninhibited) contained buffer, pNPP, and DUSP5 PD(WT); and, positive control contained the same components, but also contained 10 μM sodium orthovanadate. The plate was then shaken and allowed to equilibrate in the spectrophotometer at 25 °C for 30 min. After incubation, 4 μL of a 50 μM enzyme stock was dispensed into appropriate wells utilizing a single-channel pipette. This produced a final enzyme concentration of 1 μM. Before a read was taken, the plate was shaken for five seconds. […] The endpoint reading was subsequently taken at 90 min after initiation of reaction.
IC50 values were obtained using the assay described above, in 96 well plates. The maximum inhibitor concentration screened in any plate was […] and the minimum screened concentration was 1 μM. The IC50 plate was designed so that the first column of wells served as blanks, with wells containing only buffer and substrate. The second column of wells functioned as the plate negative control, with each well containing buffer, substrate and enzyme. The remaining wells in the plate contained buffer, substrate, enzyme, and varying amounts of inhibitor, with inhibitor concentration increasing from left to right across the plate. Data points were collected at a minimum in triplicate, and inhibitor concentrations were chosen to provide data equally spread on a logarithmic scale. The composition of buffer and the concentrations of substrate and enzyme utilized were identical to those in the plate validation assay. After initiation and shaking, a ten-minute kinetic read was taken.
For each plate assayed, the slope values for all negative control wells were averaged and the measured value considered representative of full enzymatic activity.

The nature of series [3]: Nephelometry (aggregation in solution). The format is physicochemical. The note with it: 10-100 μM, pH 7.5 buffer; for aggregation: nephelometry. How it is done:
Nephelometry is a technique for measuring the relative aggregation of particles in solution, based on the light-scattering properties of molecular aggregates. We performed nephelometry to explore the ability of the chemicals studied herein to form aggregates, which can lead to artifactual inhibition effects. Compounds were tested for aggregation in 96-well plates using a buffer containing 100 mM Tris base, 100 mM sodium chloride, and 5 mM magnesium chloride at pH 7.5. Each compound analyzed in these experiments contained concentrations of compound ranging from 10-100 μM, recorded in quadruplet. Each plate was analyzed at two separate gain values of 52 and 72. Data were collected using a BMG NEPHELOstar Plus, equipped with a 635 nm laser.

Series [4] concerns T2, DUSP5 PD(C263S).
T2 construct: a C-terminal phosphatase domain (PD); hexa-histidine (N); made in house; host or cells: E. coli BL21(DE3)
Description: NMR binding assay (2D 1H-15N HSQC). Also noted: species or system human. The conditions noted are these: 250 μM RR505 or 500 μM CSD^3_2320, pH 6.8. How it is done:
NMR samples of DUSP5 PD(C263S) were prepared for 2D ^1H-^15N HSQC (heteronuclear single quantum coherence) spectral titration studies. The ^15 N-labeled DUSP5 PD(C263S) protein was concentrated using an Amicon Ultra-4 centrifugal device (Millipore) to 600 μM. NMR samples were prepared with the following conditions for RR505: 250 μM RR505, 250 μM DUSP5 PD(C263S), 10 % D2O, 50 mM potassium phosphate, 100 mM KCl, and 2 mM DTT at pH 6.8 and for CSD^3-2320: 0 or 500 μM CSD^3-2320, 500 μM DUSP5 PD(C263S), 10 % D2O, 50 mM potassium phosphate, 100 mM KCl, and 2 mM DTT at pH 6.8. NMR experiments were performed on a 500 MHz Varian NMR System using a triple resonance probe with z-axis gradients at 25 °C.

The target of series [5] is T3, full length DUSP5 (Homo sapiens, UniProt Q16690).
T3 construct: in the more biologically relevant assay with full length DUSP5 and using pERK2 as substrate; made in house
T3 sequence (Q16690 1-384): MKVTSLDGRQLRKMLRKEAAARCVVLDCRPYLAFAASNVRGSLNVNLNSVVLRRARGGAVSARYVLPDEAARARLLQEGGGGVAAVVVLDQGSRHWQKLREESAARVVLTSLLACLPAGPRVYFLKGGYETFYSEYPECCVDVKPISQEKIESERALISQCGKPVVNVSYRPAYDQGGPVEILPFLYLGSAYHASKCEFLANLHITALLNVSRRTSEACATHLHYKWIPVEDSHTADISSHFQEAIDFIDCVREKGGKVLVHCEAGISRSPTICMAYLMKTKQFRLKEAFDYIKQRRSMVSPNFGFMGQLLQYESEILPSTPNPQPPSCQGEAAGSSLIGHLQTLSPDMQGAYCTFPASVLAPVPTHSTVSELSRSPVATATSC
Nature of the series: ERK dephosphorylation assay (full-length DUSP5, pERK2 substrate, Western blot). The format is biochemical. The conditions noted are these: full length DUSP5, pERK2 as substrate. How it is done: For this assay, 10 ng of GST-tagged recombinant phosphorylated ERK2 (R&D Systems, 1230-KS) was incubated with and without the indicated DUSP5 proteins (0.5 nM final concentration) for 15 min at room temperature, with or without the indicated drugs. The reactions were halted with 2x Laemmli sample buffer and subjected to SDS-PAGE. The proteins were transferred to polyvinylidene difluoride (PVDF) and immunoblotted using antibodies to pERK (Cell Signaling Tech., #9106) and total ERK, which includes both phosphorylated and unphosphorylated ERK1 and ERK2 (Cell Signaling Tech., #9102). Bound antibodies were visualized using horseradish peroxidase-linked anti-mouse IgG (Cell Signaling Tech, #7076S) and anti-rabbit IgG (Cell Signaling Tech, #7074S), respectively, and ECL reagents (Pierce, #34708) according to the manufacturer’s protocol. For calculating IC50 values, gel bands were imaged by chemiluminescence with either film or digital image capture by a FluorChem HD2 imager (Alpha Innotech). Density of each band was quantified with ImageJ software by using the gel analysis tool. Relative values of phosphorylated ERK present for each drug concentration treatment compared to pERK only controls were calculated. These relative values were then used to obtain IC50 values with GraphPad Prism 6 software. […]
Background: In western blotting, separated proteins are transferred to a membrane and probed.

The subject of series [6] is panel of 21 phosphatases. Nature of the series: Screen against a panel of 21 phosphatases. The format is biochemical. The note with it: at up to 30 μM.
[7] abbreviates: pNPP as substrate, Michaelis-Menten fit, 1 mL cuvette.

The term IC50 denotes the point on the concentration scale where inhibition reaches its midpoint. As for `[Na+].[Na+].[Na+].[O]=[V]([O-])([O-])[O-]` [sodium orthovanadate], half-maximal inhibition in series [1] (IC50) was put at 0.088 ± 0.008 µM.
A word on the Km: it is the concentration of substrate that gives half-maximal velocity. As to `O=[N+]([O-])c1ccc(OP(=O)(O)O)cc1` [pNPP, p-nitrophenol phosphate], in series [2] (setting [7]), the Km worked out at 7.6 ± 0.4 mM and the Vmax is 1.35 ± 0.02 × 10^−3 μmol/min.
The inhibition is the change of the read-out against control, counted positive when it falls. The Ki is a dissociation constant, usually derived from enzyme kinetics or from competition with a known ligand. Read a low Ki as a stronger hold on the target. As for `Cc1ccc(C(=O)Nc2ccc(S(=O)(=O)O)c3cc(S(=O)(=O)O)cc(S(=O)(=O)O)c23)cc1NC(=O)c1cccc(NC(=O)Nc2cccc(C(=O)Nc3cc(C(=O)Nc4ccc(S(=O)(=O)O)c5cc(S(=O)(=O)O)cc(S(=O)(=O)O)c45)ccc3C)c2)c1` [Suramin], the inhibition at 1 µM in series [2] (1 μM suramin, 5 mM pNPP, read-out: plateau level of inhibition with increasing Triton X-100) was 30%. For the same molecule, in series [2] (competitive versus pNPP, absence of Triton X-100), the Ki is 24.6 µM and 25 µM. Also, in series [2], the “effect of detergent on inhibition” value was “loss and loss of some inhibitory capability”. The “effect of detergent on inhibition” value in series [2] (listed as suramin) was “detergent decreases suramin inhibition”. Further, in series [2] (varied pNPP and inhibitor), the mode of inhibition entry is recorded as “competitive inhibitor; also recorded: competitive inhibition”. In series [3], the “concentration at which aggregates start forming” value is “around 25 μM” and the aggregation result is “forms aggregates in vitro”.
In the case of `O=S(=O)([O-])c1cc(S(=O)(=O)[O-])c2[nH]c3c(S(=O)(=O)[O-])cc(S(=O)(=O)[O-])cc3c2c1.[Na+].[Na+].[Na+].[Na+]` [RR506, Carbazole-1,3,6,8-tetrasulfonic acid, tetrasodium salt], in series [2] (pNPP substrate, 96-well plate, Triton X-100 at 0.1 %, read-out: IC50 from enzyme assay), the IC50 is 16000 ± 2000 µM. Also, in series [3], the aggregation entry is on record as “do not appear to form aggregates”.
As to `O=S(=O)(O)c1cc(O)c2c(S(=O)(=O)O)cccc2c1` [CSD^3_2320], the “binding by HSQC cross-peak shifts” value in series [4] is recorded as “direct binding”; in series [4] (listed as CSD3_2320), “binding”. For the same molecule, the IC50 was 33 µM in series [5] (read-out: IC50 (mean)); 8 to 96 µM in series [5] (read-out: IC50 (range)); 32700 µM and 33000 µM in series [2] (phosphatase domain alone, pNPP as substrate, read-out: IC50). For the same molecule, the figures for the aggregation entry in series [3] and in series [3] (listed as CSD3_2320) were “does not aggregate; also recorded: no propensity to aggregate; also recorded: no tendency to aggregate” and “no tendency”, respectively. The “inhibition of panel phosphatases” value in series [6] is “not inhibit any of them significantly”.
As to `O=S(=O)(O)c1ccc2c(S(=O)(=O)O)cc(S(=O)(=O)O)cc2c1` [NTS, Naphthalene trisulfonate], the “effect of detergent on inhibition” value in series [2] was “no detergent-effect”. Further, the aggregation result in series [3] is listed as “do not appear to form aggregates”.
